Test results published in PMC6825221, “In silico re-engineering of a neurotransmitter to activate KCNQ potassium channels in an isoform-specific manner” (Communications Biology, 2019).
Values joined by “and” are separate entries in the source; they are usually repeats but may differ in a detail not shown here. Equal values may be shown once.

Tests used:
KCNQ2 = KCNQ2 (Homo sapiens, UniProt O43526); assay: TEVC of homomeric KCNQ2 expressed in Xenopus oocytes; type: cell-based
Description: We generated cRNA transcripts encoding human KCNQ1, KCNQ2, KCNQ3, KCNQ4, KCNQ5 or GLRA1 (NM_001146040) (GenScript, Piscataway, NJ, USA) by in vitro transcription using the T7 polymerase mMessage mMachine kit (Thermo Fisher Scientific), after vector linearization, from cDNA sub-cloned into plasmids incorporating Xenopus laevis β-globin 5′ and 3′ UTRs flanking the coding region to enhance translation and cRNA stability. We quantified cRNA by spectrophotometry. […] We injected defolliculated stage V and VI Xenopus laevis oocytes (Ecocyte Bioscience, Austin, TX and Xenoocyte, Dexter, MI) with KCNQ channel α subunit (5-20 ng) or GLRA1 (20 ng) cRNAs. We incubated the oocytes at 16 °C in Barth’s saline solution (Ecocyte Bioscience) containing penicillin and streptomycin, with daily washing, for 2–5 days prior to two-electrode voltage-clamp (TEVC) recording.
(§1) For recording, oocytes were placed in a small-volume oocyte bath (Warner) and viewed them with a dissection microscope. Chemicals were sourced from Sigma, Matrix Scientific and Santa Cruz. […] All stock solutions were diluted in bath solution on the day of experiments. KCNQ2/3 channel activation was screened for using either 30 µM or 100 µM concentrations of each of the six compounds, then dose responses were conducted as appropriate. Bath solution was (in mM): 96 NaCl, 4 KCl, 1 MgCl2, 1 CaCl2, 10 HEPES (pH 7.6). Compounds were introduced into the oocyte recording bath by gravity perfusion at a constant flow of 1 ml per minute for 3 min prior to recording. Pipettes were of 1–2 MΩ resistance when filled with 3 M KCl. Currents were recorded in response to voltage pulses between −120 or −80 mV and + 40 mV at 20 mV intervals from a holding potential of −80 mV, to yield current-voltage relationships, current magnitude, and for quantifying activation rate. We analyzed data using Clampfit (Molecular Devices) and Graphpad Prism software (GraphPad, San Diego, CA, USA); values are stated as mean ± SEM. We plotted raw or normalized tail currents versus prepulse voltage and fitted with a single Boltzmann function:1 g=(A1−A2)/1+exp(V12−V)∕VS+A2, where g is the normalized tail conductance, A1 is the initial value at −∞, A2 is the final value at +∞, V1/2 is the half-maximal voltage of activation and Vs the slope factor. Activation, deactivation, wash-in and washout kinetics were fitted with single exponential functions to yield a τ value.

GLRA1 = molecular target: T1, GLRA1 (Homo sapiens, UniProt P23415); assay: TEVC of glycine receptor GLRA1 expressed in Xenopus oocytes; type: cell-based
T1 sequence (P23415 29-457): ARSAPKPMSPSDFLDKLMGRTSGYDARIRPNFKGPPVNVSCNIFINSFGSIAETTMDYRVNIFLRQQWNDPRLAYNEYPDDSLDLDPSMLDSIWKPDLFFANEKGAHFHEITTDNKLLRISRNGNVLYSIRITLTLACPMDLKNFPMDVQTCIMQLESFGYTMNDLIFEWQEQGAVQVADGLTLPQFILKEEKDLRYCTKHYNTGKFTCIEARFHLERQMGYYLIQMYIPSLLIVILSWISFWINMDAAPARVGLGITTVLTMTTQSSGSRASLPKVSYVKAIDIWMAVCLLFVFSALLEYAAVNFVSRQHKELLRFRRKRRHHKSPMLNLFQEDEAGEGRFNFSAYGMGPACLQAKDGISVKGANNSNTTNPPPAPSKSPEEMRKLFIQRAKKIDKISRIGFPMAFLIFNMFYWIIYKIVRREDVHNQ
Description: We generated cRNA transcripts encoding human KCNQ1, KCNQ2, KCNQ3, KCNQ4, KCNQ5 or GLRA1 (NM_001146040) (GenScript, Piscataway, NJ, USA) by in vitro transcription using the T7 polymerase mMessage mMachine kit (Thermo Fisher Scientific), after vector linearization, from cDNA sub-cloned into plasmids incorporating Xenopus laevis β-globin 5′ and 3′ UTRs flanking the coding region to enhance translation and cRNA stability. We quantified cRNA by spectrophotometry. We generated mutant KCNQ2 and KCNQ3 cDNAs by site-directed mutagenesis using a QuikChange kit (Stratagene, San Diego, CA) and prepared the corresponding cRNAs as above. We injected defolliculated stage V and VI Xenopus laevis oocytes (Ecocyte Bioscience, Austin, TX and Xenoocyte, Dexter, MI) with KCNQ channel α subunit (5-20 ng) or GLRA1 (20 ng) cRNAs. We incubated the oocytes at 16 °C in Barth’s saline solution (Ecocyte Bioscience) containing penicillin and streptomycin, with daily washing, for 2–5 days prior to two-electrode voltage-clamp (TEVC) recording.
as §1, with “We performed TEVC at room temperature using an OC-725C amplifier (Warner Instruments, Hamden, CT) and pClamp10 software (Molecular Devices, Sunnyvale, CA) 2–5 days after cRNA injection as described in the section above. For” for “For”

effect of a tenfold excess (100 µM) on KCNQ2 activation by 2FPG (10 µM) (KCNQ2): subtly reduced the efficacy of 2FPG | effects on KCNQ2 (KCNQ2; dose response): negligible or much less potent effects | inhibition of glycine-activated GLRA1 (GLRA1; 100 µM, 1 mM glycine): 35-40% and ~ 40% | activation of GLRA1 (GLRA1; 1 mM, compound alone): Neither compound activated GLRA1 | inhibition of the activation of GLRA1 by 1 mM glycine (GLRA1; each at 100 µM): partially inhibited
Structure (SMILES): CS(=O)(=O)N(CC(=O)O)c1cccc(F)c1 [3FMSG]
